Experimental findings from patent publication US7868204B2, “Inhibitors of histone deacetylase” (MethylGene Inc., priority 2001, dated 2011) are described below.

The target of test [1] is T1, cloned recombinant human HDAC-1 (Homo sapiens, UniProt Q13547).
T1 construct: made in house; host or cells: Baculovirus insect cell expression system
Kind of test: Human HDAC-1 enzyme inhibition, Assay 1 ([3H]-acetylated histone substrate, scintillation counting). The class given is biochemical. Summed up: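 Activity read as [3H]-acetic acid liberated from labeled substrate, ethyl acetate-extracted and scintillation-counted. Compounds preincubated 30 min at 4° C. with baculovirus-expressed, purified human HDAC-1. Dose-response curves give IC50 as concentration producing fifty percent of maximal inhibition.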

The subject of the next test is HCT116 cells. The experiment in a line: MTT assay. The format is cell-based. As to conditions: Homo sapiens, HCT116 cells, 72 hours. Summed up:
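Read-out: MTT (0.5 mg/ml final, 4 h) after solubilization in 50% DMF/20% SDS, pH 4.7, with OD translated into cell number via the line's growth curve. Compound treatment lasted 72 h at 37 °C in 5% CO2, starting a day after plating.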
In general terms: Formazan colour is commonly taken as a measure of viable cells.

Test [2] has as its system acetylated histone H-4 in T24 human bladder cancer cells. The experiment in a line: Histone H4 acetylation in whole cells by immunoblots. The format is cell-based. As to conditions: 16 h. The method, then:
T24 human bladder cancer cells growing in culture were incubated with HDAC inhibitors for 16 h. […] of total histone protein was loaded onto SDS/PAGE and transferred to nitrocellulose membranes. Membranes were probed with polyclonal antibodies specific for acetylated histone H-4 (Upstate Biotech Inc.), followed by horse radish peroxidase conjugated secondary antibodies (Sigma). Enhanced Chemiluminescence (ECL) (Amersham) detection was performed using Kodak films (Eastman Kodak). Acetylated H-4 signal was quantified by densitometry.
For orientation: In western blotting, separated proteins are transferred to a membrane and probed.

Setting [3] is: Table 5F, read-out: Human HDAC-1 IC50.
[4] abbreviates: T-24, Table 5F, read-out: H4 Ac (T24) EC50.
The mark [5] stands for this setting: Table 5b, read-out: Human HDAC-1 IC50.
[6] abbreviates: T-24, Table 5b, read-out: H4Ac (T24) EC50.
Setting [7] is: Table 5a, read-out: Human HDAC-1 IC50.
Setting [8] is: T-24, Table 5a, read-out: H4Ac (T24) EC50.

pEC50, pIC50: −log10 of the molar value. Where two headings read alike, the source gives them in different places. A value given as a limit tells only on which side of the number the result lay.

T1 sequence (Q13547 whole entry): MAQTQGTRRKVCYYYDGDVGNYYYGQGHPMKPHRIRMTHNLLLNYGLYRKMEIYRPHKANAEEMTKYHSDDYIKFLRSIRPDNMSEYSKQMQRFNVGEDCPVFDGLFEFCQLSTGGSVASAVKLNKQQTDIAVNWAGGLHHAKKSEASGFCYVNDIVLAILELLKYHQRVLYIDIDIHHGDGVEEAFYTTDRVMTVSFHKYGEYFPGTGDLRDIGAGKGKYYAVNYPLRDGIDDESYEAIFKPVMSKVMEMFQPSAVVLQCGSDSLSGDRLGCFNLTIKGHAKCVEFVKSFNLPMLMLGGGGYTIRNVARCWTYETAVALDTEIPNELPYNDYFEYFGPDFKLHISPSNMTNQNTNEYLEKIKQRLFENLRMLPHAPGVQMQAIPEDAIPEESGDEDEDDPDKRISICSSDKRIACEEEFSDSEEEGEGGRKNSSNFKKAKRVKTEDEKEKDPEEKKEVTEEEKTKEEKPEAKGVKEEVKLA

What is called pIC50 is the IC50 on a negative log10 scale, so that one unit is a factor of ten. Usually pEC50 stands for the EC50 on a negative log10 scale, so that one unit is a factor of ten. As to `Nc1ccccc1NC(=O)c1ccc(Cn2cnc3ccsc3c2=O)cc1` [Cpd 257], the pIC50 in test [1] (setting [3]) was 6.40; in the test with HCT116 cells (HCT-116, 72 h, Table 5F), 6.40. For the same molecule, in test [2] (setting [4]), the pEC50 was 6.00.
With `COc1cc(NCc2ccc(C(=O)Nc3ccccc3N)cc2)c(C(C)=O)cc1OC` [Cpd 441, 4-[(2-Acetyl-4,5-dimethoxy-phenylamino)-methyl]-N-(2-amino-phenyl)-benzamide], the pIC50 is 5.70 in test [1] (setting [3]) and 6.10 with HCT116 cells (HCT-116, 72 h, Table 5F). Moreover, the negative-log EC50 (pEC50) in test [2] (setting [4]) is 5.70.
Turning to `CN1C(=O)C2(OCCO2)c2cc(NCc3ccc(C(=O)Nc4ccccc4N)cc3)ccc21` [Cpd 459], the pIC50 in test [1] (setting [3]) is 5.40; with HCT116 cells (HCT-116, 72 h, Table 5F), 6.52. The pEC50 in test [2] (setting [4]) was 6.00.
On to `COc1ccc(CCNc2nc(NCc3ccc(C(=O)Nc4ccccc4N)cc3)nc(NC3CC3)n2)cc1` [Cpd 476], for which the pIC50 in test [1] (setting [5]) is 5.70; in the test with HCT116 cells (HCT-116, 72 h, Table 5b), 6.00. Also, the negative-log EC50 (pEC50) in test [2] (setting [6]) was 5.70.
With `COCCn1cnc2c(NCc3ccc(C(=O)Nc4ccccc4N)cc3)nc(Cl)nc21` [Cpd 243], the negative logarithm of the IC50 (pIC50) is 5.70 in test [1] (setting [3]) and 6.10 in the test on HCT116 cells (HCT-116, 72 h, Table 5F). The pEC50 in test [2] (setting [4]) is 6.00.
With `COc1ccc(NCc2ccc(C(=O)Nc3ccccc3N)cc2)cc1OCc1cccnc1` [Cpd 405], the negative logarithm of the IC50 (pIC50) in test [1] (setting [3]) is 5.30; in the test with HCT116 cells (HCT-116, 72 h, Table 5F), 6.00. Further, in test [2] (setting [4]), the negative-log EC50 (pEC50) was 5.30.
In the case of `Nc1ccccc1NC(=O)c1ccc(Cc2noc(-c3ccncc3)n2)cc1` [Cpd 358, N-(2-Amino-phenyl)-4-(5-pyridin-4-yl-[1,2,4]oxadiazol-3-ylmethyl)-benzamide], the pIC50 in test [1] (setting [3]) is 5.52; with HCT116 cells (HCT-116, 72 h, Table 5F), 6.00. The pEC50 in test [2] (setting [4]) is 5.70.
For `Nc1ccccc1NC(=O)/C=C/c1ccc(CNc2ccc(Cc3ccncc3)cc2)cc1` [Cpd 531, N-(2-Amino-phenyl)-3-{4-[(4-pyridin-4-ylmethyl-phenylamino)-methyl]-phenyl}-acrylamide], the pIC50 is 5.52 in test [1] (HDAC-1 IC50, Table 5d) and 5.70 in the test with HCT116 cells (HCT-116, Table 5d). Moreover, the pEC50 in test [2] (T-24, Table 5d, read-out: H4Ac(T24) EC50) was 4.70.
For `Nc1ccccc1NC(=O)c1ccc(CNc2nc3ccccc3[nH]2)cc1` [Cpd 389], the pIC50 in test [1] (setting [3]) is 5.52; in the test with HCT116 cells (HCT-116, 72 h, Table 5F) it was 6.70. Further, the pEC50 in test [2] (setting [4]) was 6.00.
Take `Nc1ccccc1NC(=O)c1ccc(CNc2nc(NCC3CC3)nc(NC3Cc4ccccc4C3)n2)cc1` [Cpd 472]: the pIC50 in test [1] (setting [5]) was 5.52; in the test on HCT116 cells (HCT-116, 72 h, Table 5b) it was 6.00. In addition, in test [2] (setting [6]), the pEC50 was 6.00.
For `COc1ccc2nc(SCc3ccc(C(=O)Nc4ccccc4N)cc3)[nH]c2c1` [compound 376, N-(2-Amino-phenyl)-4-(5-methoxy-1H-benzimidazol-2-yl-sulfanylmethyl)-benzamide], the pIC50 in test [1] (setting [3]) was 5.52; in the test with HCT116 cells (HCT-116, 72 h, Table 5F) it was 7.00. Further, in test [2] (setting [4]), the pEC50 was 6.00.
For the molecule `COc1cc(N2CC(c3ccc(C(=O)Nc4ccccc4N)cc3)OC2=O)cc(OC)c1OC` (stereo not drawn) [compound 297, N-(2-Amino-phenyl)-4-[2-oxo-3-(3,4,5-trimethoxy-phenyl)-oxazolidin-5-yl]-benzamide], the pIC50 in test [1] (setting [3]) is 5.15; in the test on HCT116 cells (HCT-116, 72 h, Table 5F), 6.40. The pEC50 in test [2] (setting [4]) is 6.00.
In the same order, the values of `Nc1ccccc1NC(=O)c1ccc(CNCCc2c[nH]c3ccccc23)cc1` [Cpd 436] are 5.30, 6.10 and 5.30.
Turning to `Nc1ccccc1NC(=O)c1ccc(CNc2nc(NC3CC3)nc(NC3Cc4ccccc4C3)n2)cc1` [Cpd 19], the negative-log IC50 (pIC50) is 6.05 in test [1] (setting [7]) and 6.00 with HCT116 cells (HCT-116, 72 h, Table 5a). Besides, the negative-log EC50 (pEC50) in test [2] (setting [8]) is 6.00.
For the molecule `Nc1ccccc1NC(=O)c1ccc(CNc2nc3ccc(OCCN4CCOCC4)cc3s2)cc1` [Cpd 228], the negative-log IC50 (pIC50) in test [1] (setting [3]) was 5.52; in the test on HCT116 cells (HCT-116, 72 h, Table 5F), 6.52. The pEC50 in test [2] (setting [4]) is 6.00.
For `COc1ccc(N(Cc2ccc(C(=O)Nc3ccccc3N)cc2)C(=O)Nc2ccc(SC)cc2)cc1OC` [compound 317, N-(2-Aminophenyl)-4-[1-(3,4-dimethoxyphenyl)-3-(4-methylsulfanylphenyl)-ureidomethyl]-benzamide], the pIC50 in test [1] (setting [3]) is 5.70; in the test with HCT116 cells (HCT-116, 72 h, Table 5F), 6.52. Further, the pEC50 in test [2] (setting [4]) was 6.00.
Regarding `Nc1nc(NCc2ccc(C(=O)Nc3ccccc3N)cc2)nc(N2CCN(c3ccccc3)CC2)n1` [Cpd 11], the pIC50 in test [1] (setting [7]) was 5.70; in the test with HCT116 cells (HCT-116, 72 h, Table 5a) it was 6.22. The pEC50 in test [2] (setting [8]) is 5.70.
On to `Nc1ccccc1NC(=O)c1ccc(CNc2ccc3[nH]c(SCc4cccnc4)nc3c2)cc1` [Cpd 451], for which the negative logarithm of the IC50 (pIC50) in test [1] (setting [3]) is 5.40; in the test on HCT116 cells (HCT-116, 72 h, Table 5F), 6.70. For the same molecule, in test [2] (setting [4]), the negative-log EC50 (pEC50) is 5.52.
Take `COc1ccc(Cn2c(=O)n(Cc3ccc(C(=O)Nc4ccccc4N)cc3)c(=O)c3ccccc32)cc1` [Cpd 345, N-(2-Amino-phenyl)-4-[1-(4-methoxy-benzyl)-2,4-dioxo-1,4-dihydro-2H-quinazolin-3-ylmethyl]-benzamide]: the pIC50 is 6.40 in test [1] (setting [3]) and 6.10 with HCT116 cells (HCT-116, 72 h, Table 5F). For the same molecule, in test [2] (setting [4]), the negative logarithm of the EC50 (pEC50) was 6.00.
For the molecule `Nc1ccccc1NC(=O)c1ccc(CNc2nccc(N3CCOCC3)n2)cc1` [Cpd 435, N-(2-Amino-phenyl)-4-[(4-morpholin-4-yl-pyrimidin-2-ylamino)-methyl]-benzamide], the negative-log IC50 (pIC50) is 5.52 in test [1] (setting [3]) and 6.22 in the test on HCT116 cells (HCT-116, 72 h, Table 5F). Also, in test [2] (setting [4]), the negative logarithm of the EC50 (pEC50) was 6.00.
Consider `CNc1nc2ccc(NCc3ccc(C(=O)Nc4ccccc4N)cc3)cc2n1C` [Cpd 580], for which the negative-log IC50 (pIC50) is 5.40 in test [1] (setting [3]) and 6.52 with HCT116 cells (HCT-116, 72 h, Table 5F). Also, the pEC50 in test [2] (setting [4]) is above 6.00.
For the molecule `Nc1ccccc1NC(=O)c1ccc(CC2COc3ccccc3C2)cc1` (stereo not drawn) [compound 265, N-(2-Amino-phenyl)-4-chroman-3-ylmethyl-benzamide], the negative logarithm of the IC50 (pIC50) is 5.70 in test [1] (setting [3]) and 5.70 in the test on HCT116 cells (HCT-116, 72 h, Table 5F). Further, the pEC50 in test [2] (setting [4]) was 5.52.
Take `Cc1nn(-c2ccccc2)c(C)c1Cc1ccc(C(=O)Nc2ccccc2N)cc1` [compound 277, N-(2-Amino-phenyl)-4-(3,5-dimethyl-1-phenyl-1H-pyrazol-4-ylmethyl)-benzamide]: the pIC50 in test [1] (setting [3]) is 5.40; with HCT116 cells (HCT-116, 72 h, Table 5F), 6.52. Moreover, in test [2] (setting [4]), the pEC50 is 6.00.
For `Nc1nc(CC(=O)N2CCN(Cc3ccc4c(c3)OCO4)CC2)nc(NCc2ccc(C(=O)Nc3ccccc3N)cc2)n1` [18b], the pIC50 is 6.22 in test [1] (setting [7]) and 5.30 in the test with HCT116 cells (HCT-116, 72 h, Table 5a). Also, the negative logarithm of the EC50 (pEC50) in test [2] (setting [8]) was 5.00.
With `Nc1ccccc1NC(=O)c1ccc(CNc2nc(NCc3cccnc3)nc(NC3Cc4ccccc4C3)n2)cc1` [Cpd 30], the pIC50 in test [1] (setting [7]) is 6.00; in the test with HCT116 cells (HCT-116, 72 h, Table 5a) it was 5.52. The pEC50 in test [2] (setting [8]) was 6.00.
For `Nc1ccccc1NC(=O)c1ccc(Cn2c(=O)oc3ccccc3c2=O)cc1` [Cpd 179], the negative-log IC50 (pIC50) in test [1] (setting [3]) was 6.00; in the test on HCT116 cells (HCT-116, 72 h, Table 5F), 6.52. Further, in test [2] (setting [4]), the pEC50 is 6.00.
Consider `Nc1ccccc1NC(=O)c1ccc(CNc2nc(F)c(F)cc2F)cc1` [Cpd 350], for which the negative logarithm of the IC50 (pIC50) in test [1] (setting [3]) is 5.70; in the test with HCT116 cells (HCT-116, 72 h, Table 5F), 6.00. Further, the pEC50 in test [2] (setting [4]) is 5.30.
As for `COc1ccc2[nH]c(SCc3ccc(C(=O)Nc4ccccc4O)cc3)nc2c1` [compound 311], the pIC50 in test [1] (setting [3]) was 6.05; in the test with HCT116 cells (HCT-116, 72 h, Table 5F), 6.15. Further, the negative-log EC50 (pEC50) in test [2] (setting [4]) is 6.00.
In the same order, the values of `Cc1cc(C)nc(SCc2ccc(C(=O)Nc3ccccc3N)cc2)n1` [Cpd 378, N-(2-Amino-phenyl)-4-(4,6-dimethyl-pyrimidin-2-ylsulfanylmethyl)-benzamide] are 5.70, 6.15 and 5.70.
